Measured values published in ChEMBL document CHEMBL5257103, “Identification of small molecule inhibitors against MMP-14 via High-Throughput screening” (Bioorg Med Chem, 2023).
The source made the active and inactive calls. No cut-off for these calls is given here.

What was measured:
[1] = molecular target: T1, Matrix metalloproteinase-14 (Homo sapiens, UniProt P50281); experiment: Inhibition of MMP-14 (unknown origin) using 5-FAM-TDVPNGFHVS (QXL520)-NH2 as fluorogenic substrate at 47.6 uM preincubated for 10 mins followed by substrate addition by primary HTS analysis relative to control
[2] = molecular target: T1, Matrix metalloproteinase-14; experiment: Inhibition of MMP-14 (unknown origin) using 5-FAM-TDVPNGFHVS (QXL520)-NH2 as fluorogenic substrate preincubated for 10 mins followed by substrate addition and measured for 50 mins by microplate reader assay
[3] = molecular target: T1, Matrix metalloproteinase-14; experiment: Binding affinity to […] sensor chip immobilized MMP-14 catalytic domain (unknown origin) assessed as equilibrium dissociation constant by surface plasmon resonance analysis
[4] = Cytotoxicity against human HUVEC cells assessed as cell viability upto 100 uM incubated for 4 hrs by MTS assay; format: toxicity, cell-based; conditions: read-out: Activity
[5] = molecular target: 72 kDa type IV collagenase (Homo sapiens) (UniProt P08253); experiment: Inhibition of MMP-2 (unknown origin) using QXL520-gamma-Abu-Pro-Cha-Abu-Smc-His-Ala-Dab(5-FAM)-Ala-Lys-NH2 as fluorogenic substrate at 1 to 100 uM preincubated for 10 mins followed by substrate addition and measured for 25 mins by microplate reader assay; conditions: dose 1-100 µM, time 35.0 min
[6] = molecular target: T2, Matrilysin (Homo sapiens) (UniProt P09237); experiment: Inhibition of MMP-7 (unknown origin) using QXL520-gamma-Abu-Pro-Cha-Abu-Smc-His-Ala-Dab(5-FAM)-Ala-Lys-NH2 as fluorogenic substrate at 1 to 100 uM preincubated for 10 mins followed by substrate addition and measured for 25 mins by microplate reader assay; conditions: dose 1-100 µM, time 35.0 min
T2 sequence (whole entry): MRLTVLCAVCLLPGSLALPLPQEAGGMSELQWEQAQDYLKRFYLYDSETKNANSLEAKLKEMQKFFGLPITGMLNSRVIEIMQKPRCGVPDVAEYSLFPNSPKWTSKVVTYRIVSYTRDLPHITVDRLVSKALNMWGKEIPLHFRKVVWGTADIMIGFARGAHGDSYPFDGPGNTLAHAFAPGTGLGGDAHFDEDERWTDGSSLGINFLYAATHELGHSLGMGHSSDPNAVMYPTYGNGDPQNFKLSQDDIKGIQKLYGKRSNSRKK

[7] = molecular target: T3, Matrix metalloproteinase-9 (Homo sapiens, UniProt P14780); experiment: Inhibition of MMP-9 (unknown origin) using QXL520-gamma-Abu-Pro-Cha-Abu-Smc-His-Ala-Dab(5-FAM)-Ala-Lys-NH2 as fluorogenic substrate at 1 to 100 uM preincubated for 10 mins followed by substrate addition and measured for 25 mins by microplate reader assay; conditions: dose 1-100 µM, time 35.0 min
Collagenase 3 [8] = molecular target: T4, Collagenase 3 (Homo sapiens, UniProt P45452); experiment: Inhibition of MMP-13 (unknown origin) using QXL520-gamma-Abu-Pro-Cha-Abu-Smc-His-Ala-Dab(5-FAM)-Ala-Lys-NH2 as fluorogenic substrate at 1 to 100 uM preincubated for 10 mins followed by substrate addition and measured for 25 mins by microplate reader assay; conditions: dose 1-100 µM, time 35.0 min
[9] = molecular target: T3, Matrix metalloproteinase-9; experiment: Inhibition of MMP-9 (unknown origin) using QXL520-gamma-Abu-Pro-Cha-Abu-Smc-His-Ala-Dab(5-FAM)-Ala-Lys-NH2 as fluorogenic substrate at 100 uM preincubated for 10 mins followed by substrate addition and measured for 25 mins by microplate reader assay; conditions: time 35.0 min
Collagenase 3 [10] = molecular target: T4, Collagenase 3; experiment: Inhibition of MMP-13 (unknown origin) using QXL520-gamma-Abu-Pro-Cha-Abu-Smc-His-Ala-Dab(5-FAM)-Ala-Lys-NH2 as fluorogenic substrate at 100 uM preincubated for 10 mins followed by substrate addition and measured for 25 mins by microplate reader assay; conditions: time 35.0 min
[11] = molecular target: 72 kDa type IV collagenase (Homo sapiens) (UniProt P08253); experiment: Inhibition of MMP-2 (unknown origin) using QXL520-gamma-Abu-Pro-Cha-Abu-Smc-His-Ala-Dab(5-FAM)-Ala-Lys-NH2 as fluorogenic substrate at 100 uM preincubated for 10 mins followed by substrate addition and measured for 25 mins by microplate reader assay; conditions: time 35.0 min
[12] = molecular target: T2, Matrilysin (Homo sapiens); experiment: Inhibition of MMP-7 (unknown origin) using QXL520-gamma-Abu-Pro-Cha-Abu-Smc-His-Ala-Dab(5-FAM)-Ala-Lys-NH2 as fluorogenic substrate at 100 uM preincubated for 10 mins followed by substrate addition and measured for 25 mins by microplate reader assay; conditions: time 35.0 min
[13] = molecular target: 72 kDa type IV collagenase (Mus musculus) (UniProt P33434); experiment: Inhibition of MMP-2 in mouse fibroblast assessed as reduction in concanavalin-induced MMP-2 activity by measuring gelatin digestion incubated for 24 hrs by SDS-PAGE gel electrophoresis based gelatin zymography analysis; format: cell-based
[14] = molecular target: T1, Matrix metalloproteinase-14; experiment: Inhibition of MMP-14 (unknown origin) using 5-FAM-TDVPNGFHVS (QXL520)-NH2 as fluorogenic substrate at 12.5 to 200 uM preincubated for 10 mins followed by substrate addition and measured for 50 mins by microplate reader assay; conditions: dose 12.5-200 µM, time 60.0 min
[15] = molecular target: T3, Matrix metalloproteinase-9; experiment: Inhibition of MMP-9 (unknown origin) using QXL520-gamma-Abu-Pro-Cha-Abu-Smc-His-Ala-Dab(5-FAM)-Ala-Lys-NH2 as fluorogenic substrate preincubated for 10 mins followed by substrate addition and measured for 25 mins by microplate reader assay
Collagenase 3 [16] = molecular target: T4, Collagenase 3; experiment: Inhibition of MMP-13 (unknown origin) using QXL520-gamma-Abu-Pro-Cha-Abu-Smc-His-Ala-Dab(5-FAM)-Ala-Lys-NH2 as fluorogenic substrate preincubated for 10 mins followed by substrate addition and measured for 25 mins by microplate reader assay

Sequence of 72 kDa type IV collagenase (Homo sapiens) (P08253 110-660 limits assumed): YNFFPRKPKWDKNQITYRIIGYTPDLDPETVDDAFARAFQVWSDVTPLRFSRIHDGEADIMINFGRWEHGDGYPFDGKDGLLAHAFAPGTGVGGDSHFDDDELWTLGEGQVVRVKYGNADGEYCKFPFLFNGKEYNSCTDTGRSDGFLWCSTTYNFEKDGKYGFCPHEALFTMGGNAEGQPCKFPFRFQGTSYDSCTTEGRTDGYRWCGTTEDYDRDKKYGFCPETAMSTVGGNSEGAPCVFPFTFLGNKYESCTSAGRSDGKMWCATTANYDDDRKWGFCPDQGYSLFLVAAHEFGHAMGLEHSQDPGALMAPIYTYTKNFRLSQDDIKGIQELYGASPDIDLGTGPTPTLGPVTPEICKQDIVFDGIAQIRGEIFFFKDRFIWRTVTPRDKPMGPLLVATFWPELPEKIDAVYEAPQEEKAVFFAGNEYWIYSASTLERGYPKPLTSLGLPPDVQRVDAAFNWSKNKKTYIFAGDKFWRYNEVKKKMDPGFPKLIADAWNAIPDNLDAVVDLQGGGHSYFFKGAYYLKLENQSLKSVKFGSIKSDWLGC
Sequence of 72 kDa type IV collagenase (Mus musculus) (P33434 whole entry): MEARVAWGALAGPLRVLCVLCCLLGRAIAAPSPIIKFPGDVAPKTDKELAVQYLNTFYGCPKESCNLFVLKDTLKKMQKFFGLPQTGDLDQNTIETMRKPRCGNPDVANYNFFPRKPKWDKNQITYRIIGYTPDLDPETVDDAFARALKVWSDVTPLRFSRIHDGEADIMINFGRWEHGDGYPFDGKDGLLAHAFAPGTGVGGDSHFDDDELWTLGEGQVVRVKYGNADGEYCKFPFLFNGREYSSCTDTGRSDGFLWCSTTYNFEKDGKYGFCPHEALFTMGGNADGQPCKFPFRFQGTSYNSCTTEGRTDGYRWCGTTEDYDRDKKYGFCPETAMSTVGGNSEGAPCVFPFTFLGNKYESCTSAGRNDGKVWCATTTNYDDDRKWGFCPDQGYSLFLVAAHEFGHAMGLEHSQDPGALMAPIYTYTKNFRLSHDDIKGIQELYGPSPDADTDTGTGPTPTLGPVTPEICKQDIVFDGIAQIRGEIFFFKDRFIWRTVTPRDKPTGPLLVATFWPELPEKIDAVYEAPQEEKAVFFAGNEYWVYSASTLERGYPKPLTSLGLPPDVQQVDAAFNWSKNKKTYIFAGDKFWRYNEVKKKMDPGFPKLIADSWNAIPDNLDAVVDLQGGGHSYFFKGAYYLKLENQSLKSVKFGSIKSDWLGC
T3 sequence (P14780 whole entry): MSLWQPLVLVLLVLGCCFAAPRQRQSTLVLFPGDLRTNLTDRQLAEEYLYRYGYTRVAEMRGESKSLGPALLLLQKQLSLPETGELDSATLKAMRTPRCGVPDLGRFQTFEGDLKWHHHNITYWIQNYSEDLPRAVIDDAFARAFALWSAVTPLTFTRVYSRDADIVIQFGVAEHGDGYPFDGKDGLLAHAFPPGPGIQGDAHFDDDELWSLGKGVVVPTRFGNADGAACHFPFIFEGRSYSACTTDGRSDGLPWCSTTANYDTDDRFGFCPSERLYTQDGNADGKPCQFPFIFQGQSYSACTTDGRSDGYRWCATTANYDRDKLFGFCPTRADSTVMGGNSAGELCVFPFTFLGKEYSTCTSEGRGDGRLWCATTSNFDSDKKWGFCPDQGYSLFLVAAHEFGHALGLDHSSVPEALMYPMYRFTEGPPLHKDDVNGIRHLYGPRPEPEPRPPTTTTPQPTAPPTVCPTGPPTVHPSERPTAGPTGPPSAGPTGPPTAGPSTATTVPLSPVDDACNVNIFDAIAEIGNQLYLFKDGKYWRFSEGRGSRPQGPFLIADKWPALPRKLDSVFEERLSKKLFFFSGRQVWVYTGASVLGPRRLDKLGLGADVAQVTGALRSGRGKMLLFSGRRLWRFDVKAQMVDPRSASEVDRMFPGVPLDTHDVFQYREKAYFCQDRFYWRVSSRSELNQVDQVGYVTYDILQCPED

Structure (SMILES)	inhibition [1]	IC50 [2] [µM]	Kd [3] [µM]	viability at 4 h, up to 100 µM [4] [%]	inhibition [5]	inhibition [6]	inhibition [7]	inhibition (Collagenase 3 [8])	inhibition [9] [%]	inhibition (Collagenase 3 [10]) [%]	inhibition [11] [%]	inhibition [12] [%]	inhibition [13]	inhibition [14]	IC50 [15] [µM]	IC50 (Collagenase 3 [16]) [µM]
Oc1c(I)cc(Cl)c2cccnc12 [CLIOQUINOL]	83%	26.9	1.2	> 95	inactive	inactive	inactive	inactive	< 5	< 5	< 5	< 5	Active	–	–	–
Nc1cc(Cl)c2cccnc2c1O	–	71.2	–	–	–	–	–	–	–	–	–	–	Active	Dose-Dependent Effect	–	–
Oc1c(Cl)cc(Cl)c2cccnc12 [CHLOROXINE]	Active	25.6	2.4	> 95	inactive	inactive	–	–	–	–	–	–	Active	–	15.9	19.6
CCCC(C)C1(CC)C(=O)NC(=O)NC1=O (stereo unspecified)	> 85%	–	–	–	–	–	–	–	–	–	–	–	–	–	–	–
